Assay results published in publication PMC5546936, “CLE42 binding induces PXL2 interaction with SERK2” (Protein & Cell, 2017).
Where a SMILES comes first, the peptide text is derived from it. Where no end group is shown, it is not given here. [ ]: non-standard residue; d: D form. Hyp = O=C(O)[C@@H]1C[C@@H](O)CN1

Experiments:
[1] = target: T1, PXL2LRR (extracellular LRR domain protein of PXL2) (Arabidopsis thaliana, UniProt Q9M0G7); assay: biochemical; format: binding
T1 construct: The LRR domain of PXL2 (residues 1-633, PXL2LRR) from Arabidopsis with an engineered; 6xHis (C); made in house; host or cells: High Five insect cells (baculovirus, pFastBac 1)
T1 sequence (Q9M0G7 24-633): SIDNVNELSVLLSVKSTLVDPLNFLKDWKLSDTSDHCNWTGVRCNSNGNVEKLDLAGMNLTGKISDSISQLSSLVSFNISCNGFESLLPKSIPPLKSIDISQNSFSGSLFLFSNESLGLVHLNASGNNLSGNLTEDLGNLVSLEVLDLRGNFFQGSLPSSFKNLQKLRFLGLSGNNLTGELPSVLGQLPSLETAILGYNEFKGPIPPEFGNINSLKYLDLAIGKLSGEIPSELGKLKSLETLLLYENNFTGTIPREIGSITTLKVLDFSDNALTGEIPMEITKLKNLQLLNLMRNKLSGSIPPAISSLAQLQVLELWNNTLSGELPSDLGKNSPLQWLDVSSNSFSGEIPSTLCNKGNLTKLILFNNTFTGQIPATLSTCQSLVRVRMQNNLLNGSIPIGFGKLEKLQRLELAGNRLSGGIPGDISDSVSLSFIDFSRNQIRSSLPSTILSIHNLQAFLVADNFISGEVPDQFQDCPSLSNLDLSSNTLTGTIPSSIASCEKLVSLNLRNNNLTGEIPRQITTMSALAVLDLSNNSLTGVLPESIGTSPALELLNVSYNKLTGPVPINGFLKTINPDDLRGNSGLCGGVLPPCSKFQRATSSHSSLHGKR
Procedure: (C) Measurement of the binding affinity between PXL2^LRR and CLE42 by ITC. Top panel: twenty injections of CLE42 solution were titrated into PXL2^LRR in the ITC cell. The area of each injection peak corresponds to the total heat released for that injection. Bottom panel: the binding isotherm for PXL2^LRR-CLE42 interaction. The integrated heat is plotted against the molar ratio between CLE42 and PXL2^LRR. […] The assay was performed as described in (C).

[2] = target: extracellular LRR domain protein of PXL2 (PXL2^LRR) (Arabidopsis thaliana); assay: ITC; twenty injections of peptide solution titrated into PXL2^LRR in the ITC cell

Kd [2]	Molecule	Kd [1]	also measured
	CC[C@H](C)[C@H](NC(=O)[C@@H]1CCCN1C(=O)[C@H](CC(N)=O)NC(=O)[C@@H]1C[C@@H](O)CN1C(=O)CNC(=O)[C@H](CO)NC(=O)[C@@H]1C[C@@H](O)CN1C(=O)[C@@H](NC(=O)[C@H](CCC(=O)O)NC(=O)[C@@H](N)Cc1c[nH]cn1)C(C)C)C(=O)N[C@@H](CO)C(=O)N[C@@H](CC(N)=O)C(=O)O [CLE41, His-Glu-Val-Hyp-Ser-Gly-Hyp-Asn-Pro-Ile-Ser-Asn] (H-HEV[Hyp]SG[Hyp]NPISN-OH)	10 µM	
	CC[C@H](C)[C@H](NC(=O)[C@@H]1CCCN1C(=O)[C@H](CC(N)=O)NC(=O)[C@@H]1C[C@@H](O)CN1C(=O)CNC(=O)[C@H](CO)NC(=O)[C@@H]1C[C@@H](O)CN1C(=O)[C@@H](NC(=O)CNC(=O)[C@@H](N)Cc1c[nH]cn1)C(C)C)C(=O)N[C@@H](CO)C(=O)N[C@@H](CC(N)=O)C(=O)O [CLE42, His-Gly-Val-Hyp-Ser-Gly-Hyp-Asn-Pro-Ile-Ser-Asn] (H-HGV[Hyp]SG[Hyp]NPISN-OH)	2.75 µM	
	RLV[Hyp]SG[Hyp]NPLHH [CLE13, negative control]		interaction with PXL2LRR by ITC ([1]; ITC200, 25 °C, 10 mM Bis-Tris pH 6.0, 100 mM NaCl, approximately 0.5 mM peptide, 0.05 mM PXL2LRR, repeated at least three times, negative control): no detectable interaction
2.75 µM	HGV[Hyp]SG[Hyp]NPISN [CLE42]		
10 µM	HEV[Hyp]SG[Hyp]NPISN [CLE41/44 or TDIF (tracheary elements differentiation inhibitory factor)]		
